From patent US11279913B2, “Sperm processing method, apparatus and related media compositions” (Inguran, LLC, priority 2017, dated 2022)

How the values were obtained:
Type in all cases: cell-based
bovine sperm [1] = assay: Motility of stained unsorted bovine sperm held in Caprogen-type fresh media (fluorescent CASA), Example 14
Excerpt: This is with “conventional” (unsorted) sperm stained with Hoechst 33342 (to facilitate CASA using fluorescence).
The fresh extender is a media similar to Caprogen, which contains 5% (v/v) egg yolk and is bubbled with nitrogen gas prior to diluting sperm.
In Caprogen with glycerol, the concentration of glycine is 135 millimolar and the concentration of glycerol is 135 millimolar. Control Media 1 was made with these same concentrations, while the balance of test media (Media 2-7) were made with the following concentrations as shown in Table 13:
Fresh Bovine Ejaculates of 5 bulls were diluted to 160 million sperm per mL into Staining TALP, combined with Hoechst 33342 DNA stain, incubated 60 minutes at 34° C. (as standard staining for XY sperm sorting). Once stained, the sperm in TALP were diluted in the related media to a new concentration of 15 million sperm per mL and placed into 0.25 cc straws, sealed and held horizontal at 18° C. for 4 days. On each day, one straw of sperm was warmed for 15 minutes at 34° C. and the contents of about 200 microliters from the straw were combined with 100 microliters of fresh media identical to the specified test media used to hold the sperm. Sperm were analyzed on fluorescent CASA (Hamilton Thorne IVOS II) using UV illumination.

bovine sperm [2] = assay: Post-thaw visual motility of unstained non-sorted sperm frozen in erythritol test media, Example 17 first test
Procedure: Standard bovine sperm sorting uses sheath fluid comprising 68 mM Fructose, 80 mM Citrate and 243 mM TRIS at pH 6.80 and osmolarity 290-300 mOsm. […] Combining 88 volumes of TRIS A with 12 volumes of pure glycerol creates a solution called TRIS B (The “B Fraction”). In the case of standard sperm sorting, the “B Fraction” may optionally contain no egg yolk and may be called “[…] Fraction” still containing 12 volumes of pure glycerol. […] The pH of all media was 6.70-6.75 and the osmolarity was 290-305 mOsm. The same two bulls were used for each of two tests and were measured for post-thaw quality at the same time. The first test was done with unstained non-sorted sperm similar to standard “conventional freezing.” The second test was done using different sheath fluids for sorting sperm. The first test compared control (standard media) to 7 alternate media (A-G) with compositions including various amounts of erythritol and in some cases glycine. 10 milliliters of sperm of each bull at a concentration of 100 million sperm per milliliter was cooled in standard TRIS A (control media) over 90 minutes from room temperature to about 4-6° C. Samples were then divided into 1 milliliter aliquots and 0.5 mL of cold TEST-B media was added, held for 15 minutes before an additional 0.5 mL of TEST-B media was added. […]

bovine sperm [3] = assay: Post-thaw visual motility of sperm sorted with different sheath fluids, Example 17 second test; details: up to 60 mM erythritol in sheath fluid; standard post-sort handling
Procedure: Standard bovine sperm sorting uses sheath fluid comprising 68 mM Fructose, 80 mM Citrate and 243 mM TRIS at pH 6.80 and osmolarity 290-300 mOsm. […] Combining 88 volumes of TRIS A with 12 volumes of pure glycerol creates a solution called TRIS B (The “B Fraction”). In the case of standard sperm sorting, the “B Fraction” may optionally contain no egg yolk and may be called “[…] Fraction” still containing 12 volumes of pure glycerol. […] The pH of all media was 6.70-6.75 and the osmolarity was 290-305 mOsm. The same two bulls were used for each of two tests and were measured for post-thaw quality at the same time. The first test was done with unstained non-sorted sperm similar to standard “conventional freezing.” The second test was done using different sheath fluids for sorting sperm. The second test compared a CONTROL (standard) sheath fluid to three alternate sheath fluids (H-J). After sorting all samples were handled in the identical manner to standard sperm sorting. A 3.5 mL volume of catch fluid (TRIS A) is placed in each catch tube and sorted sperm are sorted into the catch tube to a volume of 20 mL. That volume of fluid is then cooled for 90 minutes to about 4-6° C. then an equal volume of cold […] Fraction is added. […]

sorted bovine sperm = assay: Motility of sorted bovine sperm stored in CaproGLY or CaproERY at 17° C. (visual and CASA), Example 15; details: holding times longer than 4 days; erythritol versus glycerol in Caprogen
Procedure: Standard Caprogen (with glycerol) is referred to as “CaproGLY” and erythritol containing Caprogen is referred to as “CaproERY.”
Preparation of media in volume of 100 mL: 95 mL of the respective media working solution is combined with 5 mL of egg yolk, stirred for 15 minutes, held overnight at 4° C., centrifuged for 60 minutes at 1200 G in 50 mL Falcon Tubes (clarified). On day of use, nitrogen gas is bubbled through the clarified media for 15 minutes.
Sorting of the sperm to be held in the two fresh extenders: Fresh Ejaculates of 3 Jersey bulls are bulk sorted according to standard proprietary sex sorting methods disclosed in other patents. In brief, sperm are washed, concentrated and resuspended in a Hepes buffered TRIS Citrate extender to normalize concentration to about […] and pH about 7.15. Each 1 mL of staining comprises: 0.150 mL of sperm solution (about 160 million sperm), 64 nanomoles of Hoechst 33342 in 8 microliters, […] of staining TALP and 100 nanomoles of FD&C food dye. […]
The formulated sperm are filled into 0.25 cc straws, sealed and stored horizontally at 17° C. for up to nine days. On the specified test days, a straw is opened and checked for visual motility (counted by eye by technician using microscope analysis on heated stage), CASA total motility and CASA progressive motility using a Hamilton Thorne IVOS system. […]

Structure (SMILES)	support of bovine sperm motility (in words) (bovine sperm [1]; as much as 400 millimolar Erythritol in fresh bovine extender, 4 day period)	erythritol concentration giving optimal freezing results (bovine sperm [2]) [mM]	effect on sperm quality when present in sheath fluid (in words) (bovine sperm [3])	preserving quality as seen in motility (in words) (sorted bovine sperm)	support of sperm motility (in words) (bovine sperm [1]; up to 4 days, 135 millimolar glycerol, or its replacement with erythritol, in Caprogen fresh media)
OC[C@@H](O)[C@@H](O)CO [erythritol]	good support of bovine sperm motility	15 to 50	beneficial to sperm quality	better at preserving quality as seen in motility	
OCC(O)CO [glycerol, reference compound]					beneficial for supporting sperm motility
